{"source": "paper PMC9306661", "about": "(British Journal of Pharmacology, 2021)", "key": {"[1]": {"target": "T1, Cel-AVR-14B/GLC-2 (Caenorhabditis elegans, UniProt Q17328+Q17369)", "T1 sequence (Q17369 22-430)": "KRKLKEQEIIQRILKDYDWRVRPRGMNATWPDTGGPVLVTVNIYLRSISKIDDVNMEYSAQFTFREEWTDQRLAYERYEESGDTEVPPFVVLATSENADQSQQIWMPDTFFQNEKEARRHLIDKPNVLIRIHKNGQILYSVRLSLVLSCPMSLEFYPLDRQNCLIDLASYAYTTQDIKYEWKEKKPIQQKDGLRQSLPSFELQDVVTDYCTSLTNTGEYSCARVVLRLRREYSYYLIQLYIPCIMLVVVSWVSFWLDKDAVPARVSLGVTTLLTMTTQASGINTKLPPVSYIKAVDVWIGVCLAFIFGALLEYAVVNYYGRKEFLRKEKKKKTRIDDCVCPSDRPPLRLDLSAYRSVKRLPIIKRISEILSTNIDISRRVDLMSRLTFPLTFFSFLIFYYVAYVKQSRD", "T1 sequence (Q17328 23-434)": "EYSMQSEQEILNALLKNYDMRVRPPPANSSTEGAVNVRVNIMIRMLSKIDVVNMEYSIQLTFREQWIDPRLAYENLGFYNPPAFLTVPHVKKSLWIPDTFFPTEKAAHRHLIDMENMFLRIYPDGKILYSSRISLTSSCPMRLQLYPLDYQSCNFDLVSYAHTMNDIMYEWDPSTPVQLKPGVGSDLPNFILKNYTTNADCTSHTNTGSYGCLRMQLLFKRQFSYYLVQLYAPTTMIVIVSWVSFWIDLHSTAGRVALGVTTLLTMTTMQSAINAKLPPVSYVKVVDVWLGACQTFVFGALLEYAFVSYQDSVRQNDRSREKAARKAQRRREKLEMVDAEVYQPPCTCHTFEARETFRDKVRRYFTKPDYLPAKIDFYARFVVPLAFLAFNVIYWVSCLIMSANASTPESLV", "assay": "two-electrode voltage clamp, Xenopus oocytes", "type": "cell-based"}, "[2]": {"target": "T2, Pun-AVR-14B/GLC-2 (Parascaris univalens, UniProt A0A894K7G1+A0A894KE58)", "T2 sequence (A0A894K7G1 19-428)": "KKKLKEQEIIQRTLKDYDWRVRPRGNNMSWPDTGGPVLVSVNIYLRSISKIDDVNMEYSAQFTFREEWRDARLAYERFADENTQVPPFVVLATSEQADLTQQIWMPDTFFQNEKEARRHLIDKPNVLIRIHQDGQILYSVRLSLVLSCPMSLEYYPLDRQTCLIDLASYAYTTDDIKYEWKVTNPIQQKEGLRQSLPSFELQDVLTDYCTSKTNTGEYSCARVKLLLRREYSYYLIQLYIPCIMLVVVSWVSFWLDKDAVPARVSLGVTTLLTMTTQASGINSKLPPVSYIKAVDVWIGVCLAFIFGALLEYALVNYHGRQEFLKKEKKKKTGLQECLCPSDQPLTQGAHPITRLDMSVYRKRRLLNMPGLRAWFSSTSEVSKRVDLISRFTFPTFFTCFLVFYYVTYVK", "T2 sequence (A0A894KE58 21-448)": "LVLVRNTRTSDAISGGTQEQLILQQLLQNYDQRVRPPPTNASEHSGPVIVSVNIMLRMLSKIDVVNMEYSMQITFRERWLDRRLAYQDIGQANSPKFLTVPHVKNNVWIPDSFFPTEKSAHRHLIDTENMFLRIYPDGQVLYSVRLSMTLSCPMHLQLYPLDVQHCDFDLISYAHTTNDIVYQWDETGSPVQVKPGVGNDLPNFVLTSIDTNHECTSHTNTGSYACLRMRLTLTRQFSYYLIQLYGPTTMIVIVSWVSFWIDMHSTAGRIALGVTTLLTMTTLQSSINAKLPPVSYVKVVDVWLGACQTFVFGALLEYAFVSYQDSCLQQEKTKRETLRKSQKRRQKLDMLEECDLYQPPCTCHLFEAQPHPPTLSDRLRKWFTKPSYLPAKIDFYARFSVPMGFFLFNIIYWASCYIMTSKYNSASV", "assay": "two-electrode voltage clamp, Xenopus oocytes", "type": "cell-based"}}, "data": [{"compound": "N[C@@H](CCC(=O)O)C(=O)O", "note": "[glutamate]", "values": [{"measurement": "EC50", "setting": "[1]", "value": 19.4, "unit": "µM"}, {"measurement": "EC50", "setting": "[2]", "value": 10.9, "unit": "µM"}]}]}
